Assay results: PubChem BioAssay AID256 (DTP/NCI, 2004)
Where “and” joins values, the source holds several entries; their conditions need not be identical. Identical values can stand only once. Toxic doses and inconclusive results are not listed. The calls were made as follows: active = survival T/C of 150% or more; inactive = T/C below 125% in these data.

System: CD2F1 mice, L1210 leukemia ip, survival T/C
Test: NCI In Vivo Anticancer Drug Screen. Data for tumor model L1210 Leukemia (intraperitoneal) in CD2F1 (CDF1) mice
Conditions: higher = longer survival
How it was run: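 Implant tumor; dose compound or vehicle; measure endpoint in both groups; report treated divided by control.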

[1] = endpoint: mean survival time, dose: 100.0 mg/kg/injection, schedule: Q04DX003 (ip), vehicle: saline with Tween-80
[2] = endpoint: mean survival time, dose: 200.0 mg/kg/injection, schedule: Q04DX003 (ip), vehicle: saline with Tween-80
[3] = endpoint: mean survival time, dose: 400.0 mg/kg/injection, schedule: Q04DX003 (ip), vehicle: saline with Tween-80
[4] = endpoint: mean survival time, dose: 100.0 mg/kg/injection, schedule: Q01DX009 (ip), vehicle: saline with Tween-80
[5] = endpoint: mean survival time, dose: 200.0 mg/kg/injection, schedule: Q01DX009 (ip), vehicle: saline with Tween-80
[6] = endpoint: mean survival time, dose: 400.0 mg/kg/injection, schedule: Q01DX009 (ip), vehicle: saline with Tween-80
[7] = endpoint: mean survival time, dose: 50.0 mg/kg/injection, schedule: Q01DX009 (ip), vehicle: saline with Tween-80

Measured: T/C

CCOC(Cc1cccc2ccccc12)(c1ccccc1)c1ccccc1
inactive: [1] 101 % of control | [2] 98 % of control | [3] 101 % of control

CCCC[P+](CO)(CCCC)CCCC
inactive: endpoint: mean survival time, dose: 7.5 mg/kg/injection, schedule: Q04DX003 (ip), vehicle: saline 103 % of control | endpoint: mean survival time, dose: 15.0 mg/kg/injection, schedule: Q04DX003 (ip), vehicle: saline 98 % of control | endpoint: mean survival time, dose: 30.0 mg/kg/injection, schedule: Q04DX003 (ip), vehicle: saline 101 % of control

COc1cc2c[n+](C)c3c4cc5c(cc4ccc3c2cc1OC)OCO5 (tested in a mixture with another compound)
inactive: endpoint: mean survival time, dose: 3.13 mg/kg/injection, schedule: Q01DX009 (ip), vehicle: other 118 % of control and 112 % of control | endpoint: mean survival time, dose: 5.0 mg/kg/injection, schedule: Q01DX009 (ip), vehicle: saline 119 % of control | endpoint: mean survival time, dose: 6.25 mg/kg/injection, schedule: Q01DX009 (ip), vehicle: Klucel (hydroxypropylcellulose) (HPC) 112 % of control | endpoint: mean survival time, dose: 6.25 mg/kg/injection, schedule: Q01DX009 (ip), vehicle: other 117 % of control and 112 % of control | endpoint: mean survival time, dose: 12.5 mg/kg/injection, schedule: Q01DX009 (ip), vehicle: Klucel (hydroxypropylcellulose) (HPC) 124 % of control | endpoint: mean survival time, dose: 12.5 mg/kg/injection, schedule: Q01DX009 (ip), vehicle: other 113 % of control and 118 % of control | endpoint: mean survival time, dose: 25.0 mg/kg/injection, schedule: Q01DX009 (ip), vehicle: other 113 % of control and 116 % of control | endpoint: mean survival time, dose: 50.0 mg/kg/injection, schedule: Q01DX009 (ip), vehicle: Klucel (hydroxypropylcellulose) (HPC) 112 % of control

COc1cc(Cl)ccc1NC(=O)Oc1c(OC)cccc1OC
inactive: [4] 100 % of control | [5] 106 % of control | [6] 103 % of control

N#Cc1nc2c(nc1N)CCCCCCCCCC2
inactive: endpoint: mean survival time, dose: 100.0 mg/kg/injection, schedule: Q01DX001 (ip), vehicle: Klucel (hydroxypropylcellulose) (HPC) 87 % of control | endpoint: mean survival time, dose: 200.0 mg/kg/injection, schedule: Q01DX001 (ip), vehicle: Klucel (hydroxypropylcellulose) (HPC) 87 % of control | endpoint: mean survival time, dose: 400.0 mg/kg/injection, schedule: Q01DX001 (ip), vehicle: Klucel (hydroxypropylcellulose) (HPC) 87 % of control

Cc1ccc(S(=O)(=O)NS(=O)(=O)c2ccc(C)cc2)cc1
inactive: endpoint: mean survival time, dose: 25.0 mg/kg/injection, schedule: Q04DX003 (ip), vehicle: Klucel (hydroxypropylcellulose) (HPC) 106 % of control | endpoint: mean survival time, dose: 50.0 mg/kg/injection, schedule: Q04DX003 (ip), vehicle: Klucel (hydroxypropylcellulose) (HPC) 100 % of control | endpoint: mean survival time, dose: 75.0 mg/kg/injection, schedule: Q04DX003 (ip), vehicle: saline sonified 97 % of control | endpoint: mean survival time, dose: 100.0 mg/kg/injection, schedule: Q04DX003 (ip), vehicle: Klucel (hydroxypropylcellulose) (HPC) 88 % of control | endpoint: mean survival time, dose: 150.0 mg/kg/injection, schedule: Q04DX003 (ip), vehicle: saline sonified 95 % of control | endpoint: mean survival time, dose: 300.0 mg/kg/injection, schedule: Q04DX003 (ip), vehicle: saline sonified 101 % of control

Cc1cc(O)c2c(c1)C(=O)C=CC2=O
inactive: endpoint: mean survival time, dose: 0.12 mg/kg/injection, schedule: Q01DX009 (ip), vehicle: other 102 % of control | endpoint: mean survival time, dose: 0.25 mg/kg/injection, schedule: Q01DX009 (ip), vehicle: other 108 % of control | endpoint: mean survival time, dose: 0.5 mg/kg/injection, schedule: Q01DX009 (ip), vehicle: other 97 % of control | endpoint: mean survival time, dose: 1.0 mg/kg/injection, schedule: Q01DX009 (ip), vehicle: other 93 % of control | endpoint: mean survival time, dose: 2.0 mg/kg/injection, schedule: Q01DX009 (ip), vehicle: other 97 % of control

CC(C)C1C=CC(C)(/C=C/N2CCCC2)CC1 (stereo unspecified)
inactive: endpoint: mean survival time, dose: 75.0 mg/kg/injection, schedule: Q01DX001 (ip), vehicle: other 98 % of control | endpoint: mean survival time, dose: 150.0 mg/kg/injection, schedule: Q01DX001 (ip), vehicle: other 98 % of control | endpoint: mean survival time, dose: 300.0 mg/kg/injection, schedule: Q01DX001 (ip), vehicle: other 102 % of control

COC(=O)C1(N)CCCC1
inactive: endpoint: mean survival time, dose: 25.0 mg/kg/injection, schedule: Q04DX003 (ip), vehicle: saline 101 % of control | endpoint: mean survival time, dose: 50.0 mg/kg/injection, schedule: Q04DX003 (ip), vehicle: saline 100 % of control | [1] 105 % of control | endpoint: mean survival time, dose: 100.0 mg/kg/injection, schedule: Q04DX003 (ip), vehicle: saline 113 % of control | endpoint: mean survival time, dose: 200.0 mg/kg/injection, schedule: Q01DX009 (ip), vehicle: saline 121 % of control | [2] 122 % of control

[Cl][Pt+2][Cl].[NH-]Cc1ccccc1C[NH-]
inactive: endpoint: mean survival time, dose: 3.13 mg/kg/injection, schedule: Q04DX003 (ip), vehicle: dextrose 114 % of control | endpoint: mean survival time, dose: 6.25 mg/kg/injection, schedule: Q04DX003 (ip), vehicle: dextrose 116 % of control | endpoint: mean survival time, dose: 12.5 mg/kg/injection, schedule: Q04DX003 (ip), vehicle: dextrose 124 % of control | endpoint: mean survival time, dose: 25.0 mg/kg/injection, schedule: Q04DX003 (ip), vehicle: dextrose 114 % of control | endpoint: mean survival time, dose: 50.0 mg/kg/injection, schedule: Q04DX003 (ip), vehicle: dextrose 86 % of control

CCS(=O)(=O)OC1CCCCCCC1NC(=O)c1ccccc1 (stereo unspecified)
inactive: [7] 100 % of control | [4] 97 % of control | [1] 104 % of control | [2] 98 % of control

Nc1ccc(CCc2nc(N)[nH]c(=O)c2-c2ccc(Cl)cc2)cc1
inactive: endpoint: mean survival time, dose: 37.5 mg/kg/injection, schedule: Q01DX001 (ip), vehicle: saline with Tween-80 100 % of control | endpoint: mean survival time, dose: 75.0 mg/kg/injection, schedule: Q01DX001 (ip), vehicle: saline with Tween-80 91 % of control | endpoint: mean survival time, dose: 150.0 mg/kg/injection, schedule: Q01DX001 (ip), vehicle: saline with Tween-80 94 % of control

c1ccc(CC23CCCCC2N3)cc1 (stereo unspecified)
inactive: endpoint: mean survival time, dose: 100.0 mg/kg/injection, schedule: Q01DX001 (ip), vehicle: saline sonified 96 % of control | endpoint: mean survival time, dose: 200.0 mg/kg/injection, schedule: Q01DX001 (ip), vehicle: saline sonified 94 % of control

Cc1oc(N)c(C(N)=O)c1C
inactive: endpoint: mean survival time, dose: 100.0 mg/kg/injection, schedule: Q01DX009 (ip), vehicle: saline sonified 103 % of control | [1] 100 % of control | endpoint: mean survival time, dose: 200.0 mg/kg/injection, schedule: Q01DX009 (ip), vehicle: saline sonified 93 % of control | [2] 100 % of control | endpoint: mean survival time, dose: 400.0 mg/kg/injection, schedule: Q01DX009 (ip), vehicle: saline sonified 92 % of control | [3] 94 % of control

COc1ccc(CC(O)CO)cc1OCc1ccccc1 (stereo unspecified)
inactive: [4] 95 % of control | [5] 96 % of control | [6] 98 % of control

CN(C)/C=N/c1c(CO)c(-c2ccccc2)nn1-c1ccccc1
inactive: [1] 101 % of control | [2] 95 % of control | [3] 95 % of control

CCCCCCCCCCCCCCCCCCNC(=O)C[N+](C)(C)Cc1ccccc1
inactive: endpoint: mean survival time, dose: 6.25 mg/kg/injection, schedule: Q04DX003 (ip), vehicle: saline with Tween-80 103 % of control | endpoint: mean survival time, dose: 12.5 mg/kg/injection, schedule: Q04DX003 (ip), vehicle: saline with Tween-80 97 % of control

COc1cc(Cl)ccc1NC(=O)Nc1ccc(S(N)(=O)=O)cc1
inactive: [7] 91 % of control | [4] 100 % of control | [5] 91 % of control

CC1=CCCC2C1(C)CCC(C)C2(C)Cc1cc(O)ccc1O (stereo unspecified)
inactive: endpoint: median survival time, dose: 6.25 mg/kg/injection, schedule: Q01DX005 (ip), vehicle: Klucel (hydroxypropylcellulose) (HPC) 107 % of control | endpoint: median survival time, dose: 12.5 mg/kg/injection, schedule: Q01DX005 (ip), vehicle: Klucel (hydroxypropylcellulose) (HPC) 103 % of control | endpoint: median survival time, dose: 25.0 mg/kg/injection, schedule: Q01DX005 (ip), vehicle: Klucel (hydroxypropylcellulose) (HPC) 98 % of control | endpoint: median survival time, dose: 50.0 mg/kg/injection, schedule: Q01DX005 (ip), vehicle: Klucel (hydroxypropylcellulose) (HPC) 102 % of control | endpoint: median survival time, dose: 100.0 mg/kg/injection, schedule: Q01DX005 (ip), vehicle: Klucel (hydroxypropylcellulose) (HPC) 97 % of control

c1ccc2c[n+](CCCCCCCCCC[n+]3ccc4ccccc4c3)ccc2c1
inactive: endpoint: mean survival time, dose: 8.0 mg/kg/injection, schedule: Q01DX001 (ip), vehicle: saline 88 % of control | endpoint: mean survival time, dose: 32.0 mg/kg/injection, schedule: Q01DX001 (ip), vehicle: saline 88 % of control

OC1CNCc2cc3c(cc21)OCO3 (stereo unspecified)
inactive: endpoint: mean survival time, dose: 100.0 mg/kg/injection, schedule: Q01DX001 (ip), vehicle: saline 107 % of control | endpoint: mean survival time, dose: 200.0 mg/kg/injection, schedule: Q01DX001 (ip), vehicle: saline 104 % of control

CCOC(=O)CC1(C)C(=O)NC(=O)N1C(C)=O (stereo unspecified)
inactive: endpoint: mean survival time, dose: 100.0 mg/kg/injection, schedule: Q01DX001 (ip), vehicle: saline with Tween-80 105 % of control | [4] 103 % of control | endpoint: mean survival time, dose: 200.0 mg/kg/injection, schedule: Q01DX001 (ip), vehicle: saline with Tween-80 97 % of control | [5] 103 % of control | endpoint: mean survival time, dose: 400.0 mg/kg/injection, schedule: Q01DX001 (ip), vehicle: saline with Tween-80 94 % of control | [6] 116 % of control
